Results on 8 compounds are retold here after patent US8338333B1, “Methods for controlling weeds including kudzu” (priority 2009, dated 2012).

Assay [1] deals with kudzu. Briefly: Greenhouse trial: kudzu control by reduction of above-ground green biomass. It is filed as in vivo, Pueraria montana (Lour.) Merr. variety lobata (Willd.). Conditions: 2 WAT, vs untreated plants, dry weight basis, rate (units/A) differs per treatment as in Table 1. As for the experimental part:
(§1) Greenhouse trials: Kudzu was established from seed in flats containing a 2:3 (w:w) mixture of soil (Bosket silt clay loam, fine-silty, mixed thermic Aeric Ochraqualf) and potting media. Seedlings were transferred to 10 cm diameter pots containing the same soil mixture when they developed two true leaves. Pots were placed in the greenhouse, set at 30°±2° C., and equipped with supplemental lighting to provide a 14-h photoperiod. Pots were irrigated as needed and fertilized every three weeks with slow release Osmocote® fertilizer at 1.5 g/pot. […] Plants were selected for size uniformity from a population of approximately three times that necessary to establish a test.
(§2) Herbicides were applied with a pneumatic track sprayer with a TeeJet 8002 flat-fan nozzle delivering 187 L/ha water at 179 kPa. The rates utilized in this study were based on the allowable rates according to the label of the herbicide containers. Kudzu was evaluated for herbicide injury expressed as the percentage of above-ground green biomass remaining at 2 weeks after treatment (WAT) compared to untreated plants (control) on a dry weight basis. Treatments were arranged in a randomized complete block design with four replications and the experiment was repeated. Data were analyzed using the Proc Mixed procedure in SAS and means were separated using a Fisher's Protected least significant difference (LSD) at P=0.05.
In greenhouse studies, shoot biomass was determined at 2 WAT. […] For those skilled in the art of weed control, enhanced control resulting from glyphosate and an ALS inhibitor would not be expected. […] Those with high initial activity against kudzu may provide suitable kudzu control when mixed with glyphosate.

The subject of assay [2] is mature kudzu vines. As to the kind of experiment: Field: post-emergence application to mature kudzu stands (FIG. 4). It is filed as in vivo, Pueraria montana (Lour.) Merr. variety lobata (Willd.). Conditions: 3 WAT, single post-emergence application, rates per Table 4. The source says: The labeled recommended rate of glyphosate, for kudzu control was 80 to 106 ounces per acre which was well above the rates tested herein. ALS inhibitors were used at label rates. Post-emergence applications of the treatments listed in Table 4 were made to mature kudzu stands growing over a Bermuda grass turf. […] When ALS inhibitors were applied alone, less than 10% control was observed 3 WAT, whereas glyphosate alone provided less than 26% control.

Assay [3] concerns kudzu. Briefly: Field trial (Holcomb): kudzu regrowth, green biomass dry weight per plot. It is filed as in vivo, Pueraria montana (Lour.) Merr. variety lobata (Willd.). The settings on record: 6 WAT, applied mid September at maximum labeled rates, untreated control .81, Lsd .41. The source says: Field trials: Uniform areas of land infested with kudzu were identified in Holcomb and Yazoo City, Miss. Plots were one by two meters separated by a narrow strip to prevent cross-contamination of herbicides in Holcomb. Plots were three by three meters in Yazoo City. Herbicides were applied with an hand held boom sprayer equipped with a Teejet 8002 EVS flat fan nozzles, adjusted to 207 kPa, and applied at 1.3 m/s in a single pass to deliver 61.2 L/ha to the treatment areas. Commercial formulations of herbicides were applied at their maximum labeled rates. Herbicides were applied to both sites in mid September. In Holcomb, vegetation within a 0.3 m^2 area of each test plot was harvested at 6 weeks after treatment. Green plant matter was collected and dried as an estimate of above-ground healthy biomass. Biomass of treated plots was compared to untreated plots to determine percent control. In Yazoo City, the percentage reduction in leaf cover was determined by counting the number of leaves intersected by a grid containing 100 intersections (at 10 centimeter intervals) per one meter square.
Translocation of herbicides to roots is vital to achieving control of established perennial species like kudzu having deep root systems and a high capacity for regrowth. Other weeds such as redvine, silverleaf nightshade, and yellow and purple nutsedge with deep perenniating underground structures may also be more easily controlled. Without being bound by theory, the field application occurred in September when carbon allocation in kudzu shifts to root reserve replenishment which could facilitate herbicide translocation and may account for the greater activity of the combination of trifloxysulfuron and glyphosate on suppressing regrowth.

Assay [4] deals with kudzu. As to the kind of experiment: Glyphosate and trifloxysulfuron at reduced rates on kudzu (Example 2). It is filed as in vivo, Pueraria montana (Lour.) Merr. variety lobata (Willd.). On the procedure:
as §1, §2
The labeled recommended rate of glyphosate for kudzu control was 80 to 106 ounces per acre which was well above the rates tested herein. In Table 2 the rates were 8, 16 and 22 oz formulated glyphosate (WeatherMax™) per acre with trifloxysulfuron at 4.25 grams per acre. The ability to achieve control of kudzu at reduced rates of herbicide was a further indication that a unique effect was observed and allowed control using less pesticide.

Assay [5] relates to kudzu. Conditions: thirteen applications over a five year period; cited from earlier work.

Regarding `CCOc1nc(F)cc2nc(S(=O)(=O)Nc3c(Cl)cccc3C(=O)O)nn12` [chloransulam], the “Control (%), kudzu control based on percent reduction of above-ground green biomass” value in assay [1] amounted to 11%.

`O=C(O)CNCP(=O)(O)O` [glyphosate]: the “control of mature kudzu” value in assay [2] is on record as “less than 26%”. Besides, the “Kudzu Regrowth Gram dry wgt per plot” value in assay [3] is “.52 Gram dry wgt per plot”. Further, the figures for the “Kudzu Control (%)” value in assay [4] (glyphosate 0.35 lb./A alone), in assay [4] (glyphosate 0.7 lb./A alone) and in assay [4] (glyphosate 1 lb./A alone) were 33%, 95% and 97%, respectively.

As for `O=C(O)COc1cc(Cl)c(Cl)cc1Cl` [2,4,5-trichlorophenoxyacetic acid], the “killing of all kudzu crowns” value in assay [5] was “not successful in killing all crowns”.

`CSc1nnc(C(C)(C)C)c(=O)n1N` [metribuzin]: the “Kudzu Regrowth Gram dry wgt per plot” value in assay [3] is listed as “.51 Gram dry wgt per plot”.

Turning to `COc1nc(C)nc(NC(=O)NS(=O)(=O)c2ccccc2C(=O)O)n1` [metsulfuron], in assay [1], the “Control (%), kudzu control based on percent reduction of above-ground green biomass” value is listed as 87%.

For the compound `COc1cc(OC)nc(NC(=O)NS(=O)(=O)c2ncccc2OCC(F)(F)F)n1` [trifloxysulfuron], the “Kudzu Control (%)” value in assay [4] (trifloxysulfuron 4.25 g/A alone) was 72%. Besides, in assay [1], the “Control (%), kudzu control based on percent reduction of above-ground green biomass” value turned out to be 93%.

Consider `COc1cc(Cl)nc(NC(=O)NS(=O)(=O)c2ccccc2C(=O)O)n1` [chlorimuron], for which, in assay [1], the “Control (%), kudzu control based on percent reduction of above-ground green biomass” value is reported as 0%.

As to `CCNc1nc(Cl)nc(NC(C)C)n1` [atrazine], in assay [3], the “Kudzu Regrowth Gram dry wgt per plot” value is “.59 Gram dry wgt per plot”.
